Reference: patent US10550143B2, “C,O-spiro aryl glycoside compounds, preparation therefor and use thereof” (SHANGHAI INSTITUTE OF MATERIA MEDICA, CHINESE ACADEMY OF …, priority 2015, dated 2020)
Marks after values point to notes of the source that are not given here.

Legend:
SD rats [1] = assay: Acute administration of A28 at multiple doses, urinary glucose of SD rats; type: in vivo, rat; conditions: within 24 h
Protocol: (§1) (1) 72 normal male SD rats were selected and randomly divided into 9 groups according to body weight and blood glucose, 8 in each group. […] After oral gavage, the rats were placed in rats metabolic cages, and urine was collected after 24 h, and the urine volume was recorded, then preserved under −20° C. Rats take food and water freely during the experimental period.
(§2) (2) Index Determination: Glucose levels in urine are measured by the glucose assay kit.

SD rats [2] = assay: Acute administration of A28 at multiple doses, glucose tolerance of SD rats; type: in vivo, rat; conditions: SD rats OGTT; for Blood glucose level 0: before sugar
Protocol: (1) 80 SD rats were selected and starved overnight, took water freely, then randomly divided into 10 groups according to body weight and random blood glucose, 8 rats in each group. […] 1 h after oral gavage, 3 g/kg of glucose was orally administered to each group except blank control group, and the blood glucose level was monitored before the sugar administration, and at 15, 30, 60, 90 and 120 minutes after the sugar administration.
Average hypoglycemic rate %=(AUC0-120 min of solvent control group−AUC0-120 min of administration group)/(AUC0-120 min of solvent control group−AUC0-120 min of blank control group)*100%

C57BL/6J mice = assay: Acute administration of A28 at multiple doses, urinary glucose of C57BL/6J mice; type: in vivo, mouse; conditions: 24 h urine
Protocol: as §1, with “(1) 90” for “(1) 72”, “male C57BL/6J mice” for “male SD rats”, “glucose, 10” for “glucose, 8”, “the mice” for “the rats”, “rats (mice) metabolic cages,[…]” for “rats”
as §2

db/db mice [3] = assay: Chronic administration, oral glucose tolerance in db/db mice; type: in vivo, mouse; conditions: glucose tolerance, chronic administration; for AUC0-2 h reduction rate (%): vs vehicle
Protocol: (§3) Oral gavage administrated, daily dose volume was 10 mL/kg, administered once daily. Administration time was 9: 00-10:00 daily, and the administration period was 5 weeks.
The glucose tolerance of mice of normal control group, model control group, test substance group and positive control group were determined 3 weeks after administration of drug, oral administrated with 1.5 g/kg of glucose, and taken 2 μL of blood on the tail. 4 μL of normal saline was added to 96 well sharp bottom plate to dilute evenly, and then the blood glucose was measured. The blood glucose levels before the sugar administration and at 15, 30, 60, 90 and 120 min after the sugar administration were measured. The true blood glucose level was calculated and the area under the blood glucose curve within 120 min was calculated by the following formula: AUC0-2h (mmol/L·h)=(BG0+BG15)×0.25/2+(BG15+BG30)×0.25/2+(BG30+BG60)×0.5/2+(BG60+[…])×1.0/2 Note: BG0, BG15, BG30, BG60 and BG120 represent the blood glucose levels before the sugar administration, and at 15, 30, 60, and 120 min after sugar administration, respectively. Average hypoglycemic rate %=(solvent control group AUC0-2h−administration group AUC0-2h)/solvent control group AUC0-2h*100%

db/db mice [4] = assay: Chronic administration, glucose-stimulated insulin release in db/db mice; type: in vivo, mouse; conditions: glucose-stimulated insulin release, chronic administration
Protocol: as §3
The fourth week after administration, the mice were starved for 6 hours after morning administration and were orally administrated with glucose (1.5 g/kg), and blood was collected from the tail (10 μL EDTA+20 μL tail blood). Centrifuged and the supernatant was taken, stored at −20° C. for insulin test.

SMILES: CCOc1ccc(Cc2cc([C@@H]3O[C@H](CO)[C@@H](O)[C@H](O)[C@H]3O)ccc2Cl)cc1 [Dapa]
- Total sugar excretion (SD rats [1]; oral 1 mg/kg): 706.69 ± 39.98 mg/100 g
- Urine concentration (SD rats [1]; oral 1 mg/kg): 313.13 ± 16.92 mmol/L
- Urine volume (SD rats [1]; oral 1 mg/kg): 31.38 ± 1.99 mL
- Total sugar excretion (SD rats [1]; oral 3 mg/kg): 859.30 ± 41.55 mg/100 g
- Urine concentration (SD rats [1]; oral 3 mg/kg): 327.16 ± 24.63 mmol/L
- Urine volume (SD rats [1]; oral 3 mg/kg): 36.88 ± 1.55 mL
- AUC0-2 h (SD rats [2]; oral 1 mg/kg): 16.6 ± 1.2 mmol·h/L
- Average hypoglycemic rate % (0-2 h) (SD rats [2]; oral 1 mg/kg): 35.1%
- Blood glucose level 15 min (SD rats [2]; oral 1 mg/kg): 6.6 ± 0.7 mmol/L
- Blood glucose level 30 min (SD rats [2]; oral 1 mg/kg): 7.8 ± 0.9 mmol/L
- Blood glucose level 60 min (SD rats [2]; oral 1 mg/kg): 9.4 ± 1.1 mmol/L
- Blood glucose level 90 min (SD rats [2]; oral 1 mg/kg): 9.5 ± 1.0 mmol/L
- Blood glucose level 120 min (SD rats [2]; oral 1 mg/kg): 7.9 ± 1.3 mmol/L
- Blood glucose level 0 (SD rats [2]; oral 1 mg/kg): 4.9 ± 0.4 mmol/L
- AUC0-2 h (SD rats [2]; oral 3 mg/kg): 14.9 ± 1.0 mmol·h/L
- Average hypoglycemic rate % (0-2 h) (SD rats [2]; oral 3 mg/kg): 51.5%
- Blood glucose level 15 min (SD rats [2]; oral 3 mg/kg): 4.7 ± 0.2 mmol/L
- Blood glucose level 30 min (SD rats [2]; oral 3 mg/kg): 6.9 ± 1.0 mmol/L
- Blood glucose level 60 min (SD rats [2]; oral 3 mg/kg): 8.6 ± 1.0 mmol/L
- Blood glucose level 90 min (SD rats [2]; oral 3 mg/kg): 8.6 ± 1.3 mmol/L
- Blood glucose level 120 min (SD rats [2]; oral 3 mg/kg): 8.3 ± 1.2 mmol/L
- Blood glucose level 0 (SD rats [2]; oral 3 mg/kg): 4.0 ± 0.6 mmol/L
- Total sugar excretion (C57BL/6J mice; oral 1 mg/kg): 258.20 ± 81.71 mg/100 g
- Urine concentration (C57BL/6J mice; oral 1 mg/kg): 142.82 ± 45.20 mmol/L
- Urine volume (C57BL/6J mice; oral 1 mg/kg): 2.3 ± 0.7 mL
- Total sugar excretion (C57BL/6J mice; oral 3 mg/kg): 315.49 ± 99.84 mg/100 g
- Urine concentration (C57BL/6J mice; oral 3 mg/kg): 177.86 ± 56.29 mmol/L
- Urine volume (C57BL/6J mice; oral 3 mg/kg): 2.3 ± 0.7 mL
- Blood glucose AUC0-2 h (db/db mice [3]; dose 1 mg/kg): 7.9 ± 1.7
- Blood glucose (mmol/L) 0 min (db/db mice [3]; dose 1 mg/kg): 10.0 ± 1.0 mmol/L
- Blood glucose (mmol/L) 15 min (db/db mice [3]; dose 1 mg/kg): 19.9 ± 1.0 mmol/L
- Blood glucose (mmol/L) 30 min (db/db mice [3]; dose 1 mg/kg): 20.3 ± 1.1 mmol/L
- Blood glucose (mmol/L) 60 min (db/db mice [3]; dose 1 mg/kg): 11.1 ± 0.5 mmol/L
- Blood glucose (mmol/L) 90 min (db/db mice [3]; dose 1 mg/kg): 10.8 ± 0.4* * mmol/L
- Blood glucose (mmol/L) 120 min (db/db mice [3]; dose 1 mg/kg): 11.8 ± 0.5* * mmol/L
- AUC0-2 h reduction rate (%) (db/db mice [3]; dose 1 mg/kg): 48.9%
- Blood glucose AUC0-2 h (db/db mice [3]; dose 3 mg/kg): 9.4 ± 1.7
- Blood glucose (mmol/L) 0 min (db/db mice [3]; dose 3 mg/kg): 8.6 ± 0.4 mmol/L
- Blood glucose (mmol/L) 15 min (db/db mice [3]; dose 3 mg/kg): 19.0 ± 1.2 mmol/L
- Blood glucose (mmol/L) 30 min (db/db mice [3]; dose 3 mg/kg): 20.2 ± 1.8 mmol/L
- Blood glucose (mmol/L) 60 min (db/db mice [3]; dose 3 mg/kg): 12.0 ± 1.4 mmol/L
- Blood glucose (mmol/L) 90 min (db/db mice [3]; dose 3 mg/kg): 9.9 ± 0.8 mmol/L
- Blood glucose (mmol/L) 120 min (db/db mice [3]; dose 3 mg/kg): 9.1 ± 0.6 mmol/L
- AUC0-2 h reduction rate (%) (db/db mice [3]; dose 3 mg/kg): 36.1%
- Insulin AUC (db/db mice [4]; dose 1 mg/kg): 27.89 ± 3.63
- Insulin (ng/ml) 0 min (db/db mice [4]; dose 1 mg/kg): 12.92 ± 1.17 ng/mL
- Insulin (ng/ml) 15 min (db/db mice [4]; dose 1 mg/kg): 35.99 ± 5.34 ng/mL
- Insulin (ng/ml) 30 min (db/db mice [4]; dose 1 mg/kg): 29.85 ± 4.97 ng/mL
- Insulin (ng/ml) 60 min (db/db mice [4]; dose 1 mg/kg): 24.33 ± 2.90 ng/mL
- Insulin (ng/ml) pre (db/db mice [4]; dose 1 mg/kg): 8.05 ± 1.10 ng/mL
- Insulin AUC (db/db mice [4]; dose 3 mg/kg): 22.69 ± 2.89
- Insulin (ng/ml) 0 min (db/db mice [4]; dose 3 mg/kg): 8.41 ± 1.07 ng/mL
- Insulin (ng/ml) 15 min (db/db mice [4]; dose 3 mg/kg): 21.29 ± 3.11 ng/mL
- Insulin (ng/ml) 30 min (db/db mice [4]; dose 3 mg/kg): 22.60 ± 3.22 ng/mL
- Insulin (ng/ml) 60 min (db/db mice [4]; dose 3 mg/kg): 31.36 ± 5.44 ng/mL
- Insulin (ng/ml) pre (db/db mice [4]; dose 3 mg/kg): 8.15 ± 0.91 ng/mL
